The values that follow come from patent US20090118337A1, “Methods and compositions for treating inflammation” (priority 2005, published 2009).

Entries after “also recorded” stand apart in the source; their conditions may differ.

The test system of one series is NF-κB. Put plainly: NF-κB luciferase reporter gene assay in 16HBEo- cell pairs stimulated with PAO1. Type of series: cell-based, human. To be noted: PAO1 stimulation, FIG. 2. The protocol: Cell lines: 16HBE-S and 16HBE-AS cells were grown in EMEM supplemented with 10% fetal bovine serum, 2 mM L-glutamine, 100 units/100 μg per ml of penicillin-streptomycin and 400 μg/ml G-418 as previously described.
Reporter Gene Assays: Cells were seeded in 24-well tissue culture dishes 24 hours before transfection. 20 ug luciferase plasmid and 10 ug Renilla plasmid were mixed into 2 mls serum-free DMEM. NFκB luciferase and AP-1 plasmids were purchased from BD Biosciences CLONTECH. pRLTK was used as an internal control for transfection efficiency.
300 ul Lipofectamine PLUS reagent (Invitrogen) was mixed with 200 ul serum-free DMEM. The PLUS reagent and plasmid were incubated for 15 minutes at room temperature. 100 ul Lipofectamine was added to 2.4 ml serum-free DMEM.
The lipofectamine and the DNA-PLUS solutions were mixed and incubated for an additional 15 minutes. The transfection mix was diluted into 20 mls of serum-free DMEM. 250 ul of diluted transfection mix was added to each well and the cells were incubated for 3 hours. Cells were lysed and the lysates assayed for luciferase activity.
A final stock concentration of 10 mM troglitazone (Cayman Chemical) was dissolved in DMSO and diluted to various concentrations. DMSO was added to the cells as a control. […]
(In general: In a reporter assay the amount or activity of a reporter protein is the signal.)

Series [1] relates to interaction between PPARγ and other transcription factors. Description: Interaction of PPARγ with other transcription factors in well differentiated airway epithelial cells treated with I172. As to conditions: I172 20 uM for 72 hr; particularly following stimulation with TNFα/IL1β. The series is classed as cell-based, human. The protocol:
Transcription Factor Arrays: TranSignal TF-TF Interaction Array I (Panomics) was processed according to the manufacturer's instructions. Nuclear extracts from 16HBEo-sense and antisense cells were incubated with biotin-labeled double-stranded oligonucleotides. PPARγ was immunoprecipitated with 3 μg of monoclonal antibody and Dynabeads (Dynal), which are magnetic protein G beads. Free cis-elements and non-specific binding proteins were washed away. PPARγ associated biotin-labeled probes were eluted from the beads and hybridized to TranSignal Protein/DNA array membranes. The arrays were blocked and incubated with Streptavidin-HRP and developed with a chemiluminescent detection system.
In order to test the impact of CFTR deficiency on the interaction of PPAR-γ with other transcription factors, we treated well differentiated airway epithelial cells grown at the ALI with I172 (20 uM), an inhibitor of CFTR activity, continuously for 72 hr prior to preparation of nuclear extracts or stimulation. […] This model allows one to compare, in well-differentiated airway epithelial cells that have identical genetic endowment at all loci, the effect of CFTR inhibition on various cellular processes. […] During the course of these experiments, cells from the airways of a patient with CF of genotype ΔF508/ΔF508, obtained at transplant, became available and were cultured at the air-liquid interface.

The subject of series [2] is amiloride-sensitive sodium conductance. To be noted: cells grown with 20 μM I172; cited from earlier work.
The test system of another series is IL-8. Description: IL-8 secretion of cells grown with I172. Type of series: cell-based, human. To be noted: cells grown with I172, day 3. The protocol:
(§1) At three or four weeks, on day 0, cells are switched to submerged culture (liquid-liquid interface, LLI) and treated with either DMSO 1:1000 (vehicle control, normal cells, Sigma, St. Louis, Mo.), or 20 μM CFTRinh-172 (kindly provided by Alan Verkman) prepared in DMSO, and diluted from a 1:1000 stock. Drugs are added to both the basolateral (1 or 2 ml volume, according to filter size) and the apical side (0.35 or 1.5 ml) and media replenished every 24H. […] At day 3, cells were committed to inflammatory stimulation with TNF IL-1 or PAO1 as indicated below. Cells committed to PAO1 stimulation were switched to serum-free media 24H prior PAO1 stimulation, kept in serum-free media until the end of the experiment, and media replenished every 12H during that time. Serum-free media contained 1:1 DMEM-Ham's F-12, pH. 7.2, L-glutamine 2.5 mM, Penicillin/Streptomycin 100 units/100 μg per ml, gentamicin 50 μg/ml, amphotericin B 1.25 μg/ml from Gibco, Invitrogen Corporation, Carlsbad, Calif.; fluconazole 2 μg/ml (DIFLUCON®, Pfizer); transferrin 5 μg/ml, hydrocortisone 5 μM, insulin 5 μg/ml, endothelial cell growth supplement 20 μg/mil, and bovine serum albumin 1 mg/ml from Sigma, St. Louis, Mo. Serum-containing media had the same antibiotics present as the serum-free media. Antibiotics were not present during PAO1 stimulation.

Another series deals with RhoA. Description: Activated RhoA in cells grown with I172. As to conditions: cells grown with I172, day 3. Type of series: cell-based, human. The protocol: as §1
The next series concerns Smad3. Description: Smad3 expression in cells grown with I172. The series is classed as cell-based, human. To be noted: cells grown with I172, day 3. The protocol:
as §1

Series [3] has as its system well differentiated airway epithelial cells. To be noted: 20 μM I172; cited from earlier work.
For series [4] the following is noted: high dose, CF; cited from earlier work.
The subject of series [5] is CF mice challenged with M57-15 P. aeruginosa. Put plainly: Acute Pseudomonas challenge model, CF mice (BAL inflammatory response). The series is classed as in vivo. As to conditions: pretreated by gavage, BAL 24 hours after P. aeruginosa challenge. The protocol:
Pioglitazone inhibits the inflammatory response in CF mice to acute administration of Pseudomonas: Mice pretreated with pioglitazone or vehicle by gavage, then challenged with prior to challenge with M57-15 P. aeruginosa, underwent BAL for inflammatory response outcome measures 24 hours after challenge. Cell counts, cytokine values, and body weight were recorded. […] CF mice treated with vehicle had marked increase in inflammatory response compared to WT mice treated with vehicle, as previously reported for untreated mice (FIGS. 12-14).
In order to test the therapeutic potential of PPARγ agonists in CF animals, we utilized the acute pseudomonas challenge model in CF and non-CF mice, because it was the closest mimic of the acute pseudomonas challenge applied to the epithelial cells in culture. We administered pioglitazone by gavage because this is one of the two PPARγ agonists available for human use. […] However, the dose used in these studies was high compared to conventional human doses, on a weight basis, and the drug was administered prior to challenge, a luxury that may not be available for many patients with CF.

Consider `Cc1c(C)c2c(c(C)c1O)CCC(C)(COc1ccc(CC3SC(=O)NC3=O)cc1)O2` (single isomer, unassigned; (+)) [troglitazone, (+)-5[[4-[(3,4-dihydro-6-hydroxy-2,5,7,8-tetramethyl-2H-1-benzopyran-2-yl)methoxy]phenyl]methyl]-2,4thiazolidinedione], for which the “activation of NF-κB driven luciferase activity” value in the series on NF-κB is “significantly inhibited”.

Take `O=C(O)c1ccc(/C=C2\SC(=S)N(c3cccc(C(F)(F)F)c3)C2=O)cc1` [I172]: the “interaction between PPARγ and other transcription factors” value in series [1] is given as “less interaction”. Also, in series [2], the amiloride-sensitive sodium conductance entry is reported as “do not display increased amiloride-sensitive sodium conductance”. Further, in the series on IL-8, the “basal and stimulated secretion of IL-8” value is “increased basal and stimulated secretion of IL-8”. Also, the “activated RhoA” value in the series with RhoA is “increased activated RhoA”. For the same compound, in the series with Smad3, the Smad3 expression result is given as “decreased Smad3 expression”. Also, in [3], the “cell morphology by electron microscopy” value is given as “no decrease in cell viability or change in cell morphology” and the cell viability entry is listed as “no decrease in cell viability; also recorded: without compromising cell viability”.

For the compound `CC(C)Cc1ccc(C(C)C(=O)O)cc1` (centres unmarked) [ibuprofen], in series [4], the “incidence of gastrointestinal hemorrhage” value is recorded as “increased incidence” and the “rate of decline of pulmonary function” value is listed as “slowed”.

`CCc1ccc(CCOc2ccc(CC3SC(=O)NC3=O)cc2)nc1` (centres unmarked) [pioglitazone, 5-[4-[2-(5-ethylpyridin-2-yl)ethoxyl]benzyl]thiazolidine-2,4-dione]: the “inflammatory response (BAL cell counts, cytokine values, body weight) in CF mice” value in [5] is “significant reduction of the inflammatory response; also recorded: In two of the three experiments, pioglitazone limited the inflammatory response; also recorded: significant reduction in inflammatory response”.
